Values joined by “and” are separate entries in the source; they are usually repeats but may differ in a detail not shown here. Equal values may be shown once. Inconclusive results and toxic doses are left out. No stated cut-off is given here; in the data, active means T/C of 150% or more; inactive means T/C below 125%.
Tested on: L1210 leukemia ip in BDF1 mice, survival T/C
Test: NCI In Vivo Anticancer Drug Screen. Data for tumor model L1210 Leukemia (intraperitoneal) in B6D2F1 (BDF1) mice
Conditions: endpoint: mean survival time, higher = longer survival
Outline: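 Mice bearing the transplanted tumor received compound or vehicle. Survival of the treated group was divided by that of the vehicle-treated control group to give the ratio.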

[1] = dose: 100.0 mg/kg/injection, schedule: Q01DX001 (ip), vehicle: saline
[2] = dose: 100.0 mg/kg/injection, schedule: Q01DX009 (ip), vehicle: Klucel (hydroxypropylcellulose) (HPC)
[3] = dose: 100.0 mg/kg/injection, schedule: Q04DX003 (ip), vehicle: Klucel (hydroxypropylcellulose) (HPC)
[4] = dose: 200.0 mg/kg/injection, schedule: Q01DX001 (ip), vehicle: saline
[5] = dose: 200.0 mg/kg/injection, schedule: Q01DX009 (ip), vehicle: Klucel (hydroxypropylcellulose) (HPC)
[6] = dose: 200.0 mg/kg/injection, schedule: Q04DX003 (ip), vehicle: Klucel (hydroxypropylcellulose) (HPC)
[7] = dose: 400.0 mg/kg/injection, schedule: Q01DX001 (ip), vehicle: saline
[8] = dose: 400.0 mg/kg/injection, schedule: Q01DX009 (ip), vehicle: Klucel (hydroxypropylcellulose) (HPC)
[9] = dose: 400.0 mg/kg/injection, schedule: Q04DX003 (ip), vehicle: Klucel (hydroxypropylcellulose) (HPC)
[10] = dose: 100.0 mg/kg/injection, schedule: Q01DX009 (ip), vehicle: saline with Tween-80
[11] = dose: 100.0 mg/kg/injection, schedule: Q04DX002 (ip), vehicle: saline with Tween-80
[12] = dose: 200.0 mg/kg/injection, schedule: Q01DX009 (ip), vehicle: saline with Tween-80
[13] = dose: 200.0 mg/kg/injection, schedule: Q04DX002 (ip), vehicle: saline with Tween-80
[14] = dose: 100.0 mg/kg/injection, schedule: Q01DX001 (ip), vehicle: Klucel (hydroxypropylcellulose) (HPC)
[15] = dose: 200.0 mg/kg/injection, schedule: Q01DX001 (ip), vehicle: Klucel (hydroxypropylcellulose) (HPC)
[16] = dose: 400.0 mg/kg/injection, schedule: Q01DX001 (ip), vehicle: Klucel (hydroxypropylcellulose) (HPC)
[17] = dose: 100.0 mg/kg/injection, schedule: Q04DX003 (ip), vehicle: saline with Tween-80
[18] = dose: 200.0 mg/kg/injection, schedule: Q04DX003 (ip), vehicle: saline with Tween-80
[19] = dose: 25.6 mg/kg/injection, schedule: Q04DX002 (ip), vehicle: saline with Tween-80
[20] = dose: 64.0 mg/kg/injection, schedule: Q04DX002 (ip), vehicle: saline with Tween-80
[21] = dose: 160.0 mg/kg/injection, schedule: Q04DX002 (ip), vehicle: saline with Tween-80
[22] = dose: 400.0 mg/kg/injection, schedule: Q04DX003 (ip), vehicle: saline with Tween-80

Measured: T/C

O=Cc1c[nH]c2ccccc12
inactive: [1] 104 % of control | [2] 103 % of control | [3] 110 % of control | [4] 98 % of control | [5] 102 % of control | [6] 105 % of control | [7] 97 % of control | [8] 107 % of control | [9] 98 % of control

CSc1ccc(C(=O)C(CO)NC(C)=O)cc1 (stereo unspecified)
inactive: [1] 110 % of control | [4] 98 % of control | [7] 97 % of control

CC(=O)NCCCCCCCCCCNC(C)=O
inactive: dose: 10.0 mg/kg/injection, schedule: Q01DX Z (ip), vehicle: saline 91 % of control | dose: 30.0 mg/kg/injection, schedule: Q01DX Z (ip), vehicle: saline 95 % of control | dose: 100.0 mg/kg/injection, schedule: Q01DX Z (ip), vehicle: saline 95 % of control | dose: 300.0 mg/kg/injection, schedule: Q01DX Z (ip), vehicle: saline 98 % of control

CCSC1C(O)C(C(O)CO)OC1n1cnc2c(N)ncnc21 (stereo unspecified)
inactive: dose: 100.0 mg/kg/injection, schedule: Q01DX005 (ip), vehicle: saline 98 % of control and 105 % of control and 102 % of control | dose: 200.0 mg/kg/injection, schedule: Q01DX005 (ip), vehicle: saline 98 % of control and 100 % of control and 96 % of control | dose: 400.0 mg/kg/injection, schedule: Q01DX005 (ip), vehicle: saline 104 % of control

O=[N+]([O-])/C(N=Nc1ccc(Br)cc1)=N\Nc1ccc(Br)cc1
inactive: dose: 75.0 mg/kg/injection, schedule: Q01DX001 (ip), vehicle: acetone 87 % of control | dose: 150.0 mg/kg/injection, schedule: Q01DX001 (ip), vehicle: acetone 89 % of control

CC(=O)C1CCCC23CC(CC12)C(C)(C)C3Br (stereo unspecified)
inactive: [3] 100 % of control | [6] 103 % of control | [9] 97 % of control

O=C(O)c1cc(=O)cc(C(=O)O)[nH]1
inactive: [2] 102 % of control | [3] 102 % of control | [5] 96 % of control | [6] 96 % of control | [8] 92 % of control | [9] 104 % of control

Cc1ccc(NC(=O)CC#N)c(C)c1
inactive: dose: 50.0 mg/kg/injection, schedule: Q01DX009 (ip), vehicle: saline with Tween-80 95 % of control | [10] 113 % of control | [11] 101 % of control | [12] 113 % of control | [13] 101 % of control

C=CCOc1ccn(CC=C)c(=O)n1
inactive: [14] 96 % of control | [15] 98 % of control | [16] 105 % of control

Nc1nc(N)c2nc(CNc3ccc(S(=O)(=O)NC(CCC(=O)O)C(=O)O)cc3)cnc2n1 (stereo unspecified)
inactive: dose: 20.0 mg/kg/injection, schedule: Q01DX009 (ip), vehicle: Klucel (hydroxypropylcellulose) (HPC) 114 % of control | dose: 40.0 mg/kg/injection, schedule: Q01DX009 (ip), vehicle: Klucel (hydroxypropylcellulose) (HPC) 119 % of control | dose: 80.0 mg/kg/injection, schedule: Q01DX009 (ip), vehicle: Klucel (hydroxypropylcellulose) (HPC) 124 % of control | [5] 120 % of control

CCC1=C(CC2NCCc3cc(OC)c(OC)cc32)CC2c3ccccc3CCN2C1 (stereo unspecified)
inactive: dose: 4.0 mg/kg/injection, schedule: Q04DX003 (ip), vehicle: water 105 % of control and 106 % of control | dose: 8.0 mg/kg/injection, schedule: Q04DX003 (ip), vehicle: water 104 % of control and 108 % of control | dose: 16.0 mg/kg/injection, schedule: Q04DX003 (ip), vehicle: water 112 % of control and 100 % of control | dose: 32.0 mg/kg/injection, schedule: Q04DX003 (ip), vehicle: water 105 % of control and 98 % of control | dose: 64.0 mg/kg/injection, schedule: Q04DX003 (ip), vehicle: water 100 % of control | dose: 75.0 mg/kg/injection, schedule: Q01DX001 (ip), vehicle: saline 100 % of control and 97 % of control | dose: 150.0 mg/kg/injection, schedule: Q01DX001 (ip), vehicle: saline 101 % of control and 103 % of control

O=C(OC1COC(OCc2ccccc2)C(OC(=O)c2ccccc2)C1OC(=O)c1ccccc1)c1ccccc1 (stereo unspecified)
inactive: dose: 25.0 mg/kg/injection, schedule: Q04DX003 (ip), vehicle: saline with Tween-80 94 % of control | [17] 93 % of control and 87 % of control

Cc1csc2nccc(Cl)c12
inactive: dose: 50.0 mg/kg/injection, schedule: Q04DX002 (ip), vehicle: saline with Tween-80 98 % of control | [11] 91 % of control

c1cc2c3c(c1)ncn3CCC2
inactive: dose: 50.0 mg/kg/injection, schedule: Q01DX009 (ip), vehicle: other 119 % of control | dose: 100.0 mg/kg/injection, schedule: Q01DX009 (ip), vehicle: other 104 % of control | [17] 102 % of control | dose: 200.0 mg/kg/injection, schedule: Q01DX009 (ip), vehicle: other 117 % of control | [18] 100 % of control

Cc1cccc2nc(-c3ccccc3)ccc12
inactive: dose: 6.0 mg/kg/injection, schedule: Q01DX009 (ip), vehicle: other 100 % of control | dose: 12.0 mg/kg/injection, schedule: Q01DX009 (ip), vehicle: other 92 % of control | dose: 12.0 mg/kg/injection, schedule: Q04DX003 (ip), vehicle: saline 92 % of control | dose: 25.0 mg/kg/injection, schedule: Q01DX009 (ip), vehicle: other 94 % of control | dose: 25.0 mg/kg/injection, schedule: Q04DX003 (ip), vehicle: saline 98 % of control

CCOC(=O)NCc1cccc2ccc(Cl)cc12
inactive: [14] 95 % of control | [15] 90 % of control | [16] 86 % of control

CCCCCC(C)C1=NC(C)(C)CC(C)O1 (stereo unspecified)
inactive: dose: 5.0 mg/kg/injection, schedule: Q04DX003 (ip), vehicle: saline with Tween-80 101 % of control | dose: 10.0 mg/kg/injection, schedule: Q04DX003 (ip), vehicle: saline with Tween-80 95 % of control | dose: 20.0 mg/kg/injection, schedule: Q04DX003 (ip), vehicle: saline with Tween-80 108 % of control

CCOC(=O)C(C(C)=O)C(c1cccc(O)c1)C(C(C)=O)C(=O)O (stereo unspecified)
inactive: [19] 95 % of control | dose: 37.5 mg/kg/injection, schedule: Q01DX009 (ip), vehicle: saline with Tween-80 100 % of control | [20] 91 % of control | dose: 75.0 mg/kg/injection, schedule: Q01DX009 (ip), vehicle: saline with Tween-80 91 % of control | [17] 90 % of control | dose: 150.0 mg/kg/injection, schedule: Q01DX009 (ip), vehicle: saline with Tween-80 94 % of control | [21] 87 % of control | [18] 90 % of control

CCCCCCP(=O)(CCCCCC)C1CCCC1
inactive: [17] 91 % of control | [18] 92 % of control

CC(=O)OC1Cc2ccccc21 (stereo unspecified)
inactive: [10] 96 % of control | [17] 95 % of control | [12] 109 % of control | [18] 96 % of control | dose: 400.0 mg/kg/injection, schedule: Q01DX009 (ip), vehicle: saline with Tween-80 100 % of control | [22] 98 % of control

CCOc1nc(N)nc(N)c1-c1ccc(Cl)cc1
inactive: [11] 92 % of control | [13] 96 % of control

COc1ccccc1-n1c(O)c(N=Nc2ccc(Br)cc2)c(=O)n(-c2ccccc2)c1=S
inactive: [14] 102 % of control | [15] 121 % of control | [16] 102 % of control

COC(=O)CC(CC(=O)OC)c1cccc([N+](=O)[O-])c1
inactive: [19] 101 % of control | [20] 101 % of control | [17] 106 % of control | [21] 101 % of control | [18] 101 % of control | dose: 400.0 mg/kg/injection, schedule: Q04DX002 (ip), vehicle: saline with Tween-80 86 % of control | [22] 101 % of control

C[C@H]1[C@H](O)[C@H]2[C@@H](CCC3=CC(=O)CC[C@@]32C)[C@@H]2CC[C@H](O)[C@@]12C
inactive: dose: 50.0 mg/kg/injection, schedule: Q01DX001 (sc), vehicle: steriod suspending solution 102 % of control | dose: 100.0 mg/kg/injection, schedule: Q01DX001 (sc), vehicle: steriod suspending solution 102 % of control | dose: 200.0 mg/kg/injection, schedule: Q01DX001 (sc), vehicle: steriod suspending solution 102 % of control | dose: 400.0 mg/kg/injection, schedule: Q01DX001 (sc), vehicle: steriod suspending solution 96 % of control

Reference: PubChem BioAssay AID248 (DTP/NCI, 2004)
